Columns and labels:
[1] = Health vitals and open-field test in PDX mice; format: in vivo, mouse; conditions: end of study, 2 mg/Kg Bwt i.p.
Method: FIG. 12 illustrates an embodiment of the present invention and illustrates SIM-1 and SIM-2 arrest the growth of human TNBC tumor in patient-derived xenograft mouse model. TM00096 tumor (origin of invasive ductal carcinoma isolated from a person) was seeded in the flank of 6-week-old female SCID mice by Jackson Laboratory and then shipped to our research facility. Once the tumor reached ˜4 mm in size (˜30 mm^3 in volume), n=6 mice/group were treated by vehicle (5% DMSO), SIM-1 and SIM-2 (2 mg/Kg Bwt mixed with 5% DMSO) via i.p. for 2 weeks in every alternate day. The tumor size was monitored accordingly during the treatment and two more weeks after the last dose to evaluate the recurrence. […] (B) Tumor size was measured every alternate day for 4 weeks by a digital caliper and then the volume was calculated using the formula 0.5*Length*Width^2. […] (D) Body weight was recorded during the course of the study to monitor the adverse metabolic outcome due to the drug administration. (E) The heart rate was monitored at 0-, 7-, 14-, and 28-days post SIM-1 and SIM-2 treatments by MouseStat Jr console (Kent Scientific) as per the manufacturer's instruction. (F) At the end of the study, the gross motor performance was recorded for n=6 (i) vehicle, (ii) SIM-1-, and (iii) SIM-2-treated mice. […]

[2] = tested on: STAT3-dependent tumor-promoting genes; assay: Gene array of 66 STAT3-dependent tumor-promoting genes in PDX tumors; format: in vivo, mouse; conditions: tumor tissue; for number of the 66 STAT3-dependent genes strongly downregulated: out of 66 genes
Method: FIG. 15 illustrates an embodiment of the present invention and illustrates SIM 1 and 2 inhibited Y705P phosphorylation of STAT3 and the expressions of STAT3-dependent tumor supportive genes. (A) DAB immunostaining of Y705P STAT3 in tumor parenchyma of all three groups. (B) Quantitative analysis of Y705P STAT3-ir cells was performed by counting Y705P STAT3 cells in 15 different images, converting into a percent scale, and then plotting in a scatter histogram. On-way ANOVA followed by multiple comparison test indicated ****p<0.0001 versus control. (C) DAB immunostaining of S727P STAT3 followed by a (D) quantitative analysis of S727P STAT3-ir cells was performed in 15 different images and then plotted as a percent of total cells by a scatter histogram. On-way ANOVA represents no significance (NS) between groups. (E) Immunoblot analyses of Y705PSTAT3 (Rabbit […] antibody Cat #710093; Invitrogen), S727PSTAT3 (Mouse 1° antibody cat #MA5-15208; Invitrogen) followed by normalization with loading control β-actin (Mouse 1° antibody cat #MA1-744; Invitrogen). (F) A cDNA-based gene array of 66 STAT3-dependent tumor promoting genes were analyzed in TNBC tumors of vehicle-, SIM-1-, and SIM-2-treated mice. (G) A scatter plot summarized the gene array results. Based on the relative levels of expressions, gene levels were classified as low, moderate, and highly expressed. Results are confirmed after three different experiments.
These genes include anti-apoptotic genes such as bcl-2, survivin, and bcl-xl; cell cycle progression markers such as cyclin D1, akt, and p21.

SMILES | open-field test: gross movement, total distance traveled, average speed [1] | number of the 66 STAT3-dependent genes strongly downregulated [2] | tumor growth suppressor gene p53 expression [2]
O=C(O)CCC(=O)NCc1csc2ccc(Cl)cc12 [SIM-1, 4-[(5-chloro-1-benzothiophen-3-yl)methylamino]-4-oxobutanoic acid] | did not show any adverse outcome | 55 | significantly upregulated
CCOC(=O)c1c(NC(C)=O)sc2c(Cl)c(/C=N/O)ccc12 [SIM-2, ethyl 2-acetamido-7-chloro-6-(hydroxyiminomethyl)-1-benzothiophene-3-carboxylate] | did not show any adverse outcome | 55 | significantly upregulated

Reference: patent US20250255847A1, “[…]s: Novel Drugs for Triple Negative Breast Cancer” (SIMMARON RSEARCH INC, priority 2024, published 2025)
